According to patent EP2326328B1, “USE OF DIHYDRALAZINE FOR THE TREATMENT OF DISEASES RELATED TO ELEVATED SEMICARBAZIDE SENSITIVE AMINE-OXIDASE (SSAO) ACTIVITY” (Semmelweis Egyetem, priority 2008, dated 2010):

Experiments:
macular edema = macular edema of type 2 diabetic patients, retinal thickness by optical coherency tomography (OCT); type: in vivo, human; parameters: OCT CPT (center point thickness): unit not given beside the values; conditions: for OCT CPT (center point thickness) / OCT CST (central subfield thickness): oral 14.5 mg dihydralazine sulphate twice daily
Method: The effect of orally administered low dose dihydralazine on macular edema and serum SSAO activity was studied in type 2 diabetic patients in an early stage of macular edema formation.
(§1) After giving their informed consent, patients participating in the study were treated for 56 days taking ½ tablet twice daily of a pharmaceutical composition containing 28.9 mg dihydralazine sulphate (i.e. the ½ tablet contained 14.5 mg dihydralazine sulphate).
To measure the efficacy and monitor the safety of the treatment, the following examinations were carried out before starting the treatment and at the 1., 7., 14., 28. and 56. day of the treatment: • 1. ocular examinations: visual acuity (ETDRS chart), slit-lamp examination, measurement of intraocular pressure with applanation tonometry, fundus biomicroscopy with pupil dilation, digital fundus photography. The grade of macular edema was determined via measuring retinal thickness with optical coherency tomography (OCT). • 2. internal medicine examinations: anamnesis, physical examinations, blood pressure, pulse, urine examination. • 3. laboratory examinations: blood glucose, HbA1c, liver function, kidney function, microalbuminuria, metabolic panel of the blood , lipids, CRP.
In the table the following abbreviations were used: • BMI: body mass index - weight (kg) / height (m^2) • RRsyst: blood pressure (systolic) (Hgmm) • RRdiast: blood pressure (diastolic) (Hgmm) • OCT CST (central subfield thickness): the average thickness of the central 1-mm area of the macula • OCT CPT (center point thickness): the thickness of the center point of the retina; normally that is the thinnest point of the macula Table 4.

human serum SSAO = target: T1, human serum SSAO (Homo sapiens, UniProt Q16853); assay: radiochemical determination of SSAO activity in human serum (14C-benzylamine substrate); type: biochemical; conditions: 20 min pre-incubation at room temperature, 37°C 40 min
T1 construct: from tissue; host or cells: human serum
T1 sequence (Q16853 29-763 limits assumed): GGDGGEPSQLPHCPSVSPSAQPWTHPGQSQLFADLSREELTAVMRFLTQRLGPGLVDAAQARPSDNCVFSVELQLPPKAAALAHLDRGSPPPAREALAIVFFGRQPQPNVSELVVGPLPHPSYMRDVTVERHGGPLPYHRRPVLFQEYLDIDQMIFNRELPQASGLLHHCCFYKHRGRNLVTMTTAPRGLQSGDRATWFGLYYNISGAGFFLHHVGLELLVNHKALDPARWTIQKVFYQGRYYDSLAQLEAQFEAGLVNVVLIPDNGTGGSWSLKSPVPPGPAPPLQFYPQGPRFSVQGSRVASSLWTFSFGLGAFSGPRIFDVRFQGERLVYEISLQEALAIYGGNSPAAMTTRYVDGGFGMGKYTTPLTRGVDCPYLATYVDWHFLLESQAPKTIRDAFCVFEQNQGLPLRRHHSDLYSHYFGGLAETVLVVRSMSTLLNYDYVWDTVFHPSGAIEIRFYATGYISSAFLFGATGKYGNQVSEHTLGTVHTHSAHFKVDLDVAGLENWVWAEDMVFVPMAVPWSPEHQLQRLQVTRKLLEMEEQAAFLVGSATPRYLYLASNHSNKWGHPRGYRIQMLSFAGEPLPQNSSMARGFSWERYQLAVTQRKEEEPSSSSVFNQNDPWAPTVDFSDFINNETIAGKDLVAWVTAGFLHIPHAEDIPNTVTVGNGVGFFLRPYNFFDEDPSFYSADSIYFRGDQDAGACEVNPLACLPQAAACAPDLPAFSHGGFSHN
Method: In the experiment human serum was used in the following way: blood samples were collected without anticoagulant, then stored at 4°C for 15 minutes and centrifuged (4°C, 2500 g/10 min). The supernatant was stored at -80°C until the measurement of the enzyme activity.
(§2) A radiochemical procedure (Yu P.H., Zuo D.M., Biochem. Pharmacol., 1992, 43, 307-312) was adapted for determining SSAO activities in the human serum. It is based on the determination of the quantity of ^14C-benzaldehyde formed by the enzyme reaction of ^14C-benzylamine.
The preparations containing the serum and the dihydralazine enzyme inhibitor were pre-incubated at room temperature for 20 min. The enzyme reaction was started with ^14C-benzylamine substrate (- 200000 dpm/tube). […] The enzyme activity was determined by liquid scintillation counting (600 µl supernatant + 5ml Aquasafe), using the formula below: ([dpm(sample)-dpm0ʹ] x 1.6 x 10 x 1.5)/(measured substrate activity dpm x mg protein) [formula] standing for: 1.6: extraction volume; 10: molar activity; 1.5: correction factor for the incubation time; dpm: disintegrations per minute (unit of radioactivity)
The inhibition was calculated in the % inhibition compared to the control ('control' sample not containing the inhibitor compound) after correction with the background ('blank' sample). […]

SSAO = target: T2, SSAO (Homo sapiens, UniProt Q16853); assay: serum SSAO activity of treated type 2 diabetic patients; type: in vivo; conditions: for SSAO activity (pmol/mg protein/hour): serum, oral 14.5 mg dihydralazine sulphate twice daily
T2 construct: from tissue; host or cells: human serum
T2 sequence (Q16853 29-763 limits assumed): T1 sequence (Q16853 29-763 limits assumed)
Method: as §2
The preparations containing the serum and the dihydralazine enzyme inhibitor were pre-incubated at room temperature for 20 min. The enzyme reaction was started with ^14C-benzylamine substrate (- 200000 dpm/tube). The samples obtained accordingly were incubated at 37°C for 40 min, then the reaction was stopped by adding 200 µl 2M citric acid solution. In case of the 'blank' sample, citric acid solution was added before adding the substrate, therefore, in this case no enzyme reaction took place. The samples were extracted with 1000 µl 1:1 toluene - ethyl acetate mixture, by vortex method, then centrifuged (2500 g / 5 min). The enzyme activity was determined by liquid scintillation counting (600 µl supernatant + 5ml Aquasafe), using the formula below: ([dpm(sample)-dpm0ʹ] x 1.6 x 10 x 1.5)/(measured substrate activity dpm x mg protein) [formula] standing for: 1.6: extraction volume; 10: molar activity; 1.5: correction factor for the incubation time; dpm: disintegrations per minute (unit of radioactivity)
as §1
Serum SSAO activity was determined from blood samples collected before starting the treatment, and at the 14., 28. and 56. day of the treatment. The blood samples were centrifuged and the supernatant was stored at - 80°C until the measurement of the enzyme activity. SSAO activity was determined applying the method described in the example above.

[1] = 2 treated type 2 diabetic patients, oral 14.5 mg dihydralazine sulphate twice daily for 56 days

## NNc1nnc(NN)c2ccccc12 [dihydralazine]
Macular edema; 1. patient, 14. day, before treatment 272
  OCT CPT (center point thickness): 215
Macular edema; 1. patient, 14. day, before treatment 298
  OCT CST (central subfield thickness): 266
Macular edema; 1. patient, 28. day, before treatment 272
  OCT CPT (center point thickness): 219
Macular edema; 1. patient, 28. day, before treatment 298
  OCT CST (central subfield thickness): 273
Macular edema; 1. patient, 56. day, before treatment 272
  OCT CPT (center point thickness): 209
Macular edema; 1. patient, 56. day, before treatment 298
  OCT CST (central subfield thickness): 265
Macular edema; 2. patient, 14. day, before treatment 257
  OCT CPT (center point thickness): 319
Macular edema; 2. patient, 14. day, before treatment 302
  OCT CST (central subfield thickness): 323
Macular edema; 2. patient, 28. day, before treatment 257
  OCT CPT (center point thickness): 239
Macular edema; 2. patient, 28. day, before treatment 302
  OCT CST (central subfield thickness): 286
Macular edema; 2. patient, 56. day, before treatment 257
  OCT CPT (center point thickness): 201
Macular edema; 2. patient, 56. day, before treatment 302
  OCT CST (central subfield thickness): 252
Macular edema; [1]
  macular edema: significant decrease of the macular edema was observed in the fovea
Human serum SSAO
  IC20: 500 nM
SSAO; [1]
  serum SSAO activity: parallel decrease of serum SSAO activity
SSAO; 1. patient, 14. day, before treatment 93.02
  SSAO activity (pmol/mg protein/hour): 62.42 pmol/mg protein/hour
SSAO; 1. patient, 28. day, before treatment 93.02
  SSAO activity (pmol/mg protein/hour): 85.73 pmol/mg protein/hour
SSAO; 1. patient, 56. day, before treatment 93.02
  SSAO activity (pmol/mg protein/hour): 82.41 pmol/mg protein/hour
SSAO; 2. patient, 14. day, before treatment 167.56
  SSAO activity (pmol/mg protein/hour): 127.96 pmol/mg protein/hour
SSAO; 2. patient, 28. day, before treatment 167.56
  SSAO activity (pmol/mg protein/hour): 186.36 pmol/mg protein/hour
SSAO; 2. patient, 56. day, before treatment 167.56
  SSAO activity (pmol/mg protein/hour): 105.1 pmol/mg protein/hour
